The text below walks through data of patent publication US20260138961A1, “MODULATORS OF MITOCHONDRIAL DNA REPLICATION” (Pretzel Therapeutics, Inc., priority 2022, published 2026).

The term AC50 denotes the concentration at which the activity in the assay is half-maximal. Higher therefore signals activity only at high concentration.

The assay has as its target T1, POLγA:Y955C (Homo sapiens, UniProt P54098, Y955C).
T1 sequence (P54098 1-1239 Y955C): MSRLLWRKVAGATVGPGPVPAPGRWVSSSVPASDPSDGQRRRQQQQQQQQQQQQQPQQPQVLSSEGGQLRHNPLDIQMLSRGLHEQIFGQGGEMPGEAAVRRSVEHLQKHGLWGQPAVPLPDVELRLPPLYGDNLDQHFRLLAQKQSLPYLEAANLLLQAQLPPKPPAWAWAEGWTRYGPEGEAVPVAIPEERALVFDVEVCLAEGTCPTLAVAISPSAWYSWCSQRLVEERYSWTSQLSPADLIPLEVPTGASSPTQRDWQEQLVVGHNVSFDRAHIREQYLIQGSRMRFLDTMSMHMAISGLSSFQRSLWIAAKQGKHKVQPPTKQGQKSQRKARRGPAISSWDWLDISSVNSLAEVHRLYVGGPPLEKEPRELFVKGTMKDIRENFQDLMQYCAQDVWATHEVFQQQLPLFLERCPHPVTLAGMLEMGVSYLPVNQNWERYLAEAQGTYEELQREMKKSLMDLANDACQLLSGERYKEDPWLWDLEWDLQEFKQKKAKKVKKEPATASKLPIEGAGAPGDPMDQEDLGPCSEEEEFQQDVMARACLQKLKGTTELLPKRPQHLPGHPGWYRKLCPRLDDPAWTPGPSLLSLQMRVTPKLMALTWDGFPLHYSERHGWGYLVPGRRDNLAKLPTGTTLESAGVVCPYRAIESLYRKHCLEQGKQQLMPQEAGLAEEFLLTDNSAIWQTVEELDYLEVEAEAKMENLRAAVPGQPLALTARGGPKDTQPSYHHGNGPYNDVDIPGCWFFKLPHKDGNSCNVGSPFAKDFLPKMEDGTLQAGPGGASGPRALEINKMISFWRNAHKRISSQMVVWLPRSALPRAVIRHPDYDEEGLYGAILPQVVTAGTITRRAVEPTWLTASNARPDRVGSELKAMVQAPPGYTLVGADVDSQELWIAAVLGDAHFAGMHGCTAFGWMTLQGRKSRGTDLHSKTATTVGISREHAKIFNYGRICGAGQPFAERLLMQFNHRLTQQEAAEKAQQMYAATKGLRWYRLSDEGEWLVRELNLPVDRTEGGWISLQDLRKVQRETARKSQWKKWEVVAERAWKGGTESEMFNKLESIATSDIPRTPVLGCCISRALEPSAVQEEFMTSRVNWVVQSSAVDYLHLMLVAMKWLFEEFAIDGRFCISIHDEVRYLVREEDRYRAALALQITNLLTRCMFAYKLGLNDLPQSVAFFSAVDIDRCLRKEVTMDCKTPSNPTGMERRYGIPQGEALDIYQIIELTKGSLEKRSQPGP
T1 sequence (Q9UHN1 1-485 partner): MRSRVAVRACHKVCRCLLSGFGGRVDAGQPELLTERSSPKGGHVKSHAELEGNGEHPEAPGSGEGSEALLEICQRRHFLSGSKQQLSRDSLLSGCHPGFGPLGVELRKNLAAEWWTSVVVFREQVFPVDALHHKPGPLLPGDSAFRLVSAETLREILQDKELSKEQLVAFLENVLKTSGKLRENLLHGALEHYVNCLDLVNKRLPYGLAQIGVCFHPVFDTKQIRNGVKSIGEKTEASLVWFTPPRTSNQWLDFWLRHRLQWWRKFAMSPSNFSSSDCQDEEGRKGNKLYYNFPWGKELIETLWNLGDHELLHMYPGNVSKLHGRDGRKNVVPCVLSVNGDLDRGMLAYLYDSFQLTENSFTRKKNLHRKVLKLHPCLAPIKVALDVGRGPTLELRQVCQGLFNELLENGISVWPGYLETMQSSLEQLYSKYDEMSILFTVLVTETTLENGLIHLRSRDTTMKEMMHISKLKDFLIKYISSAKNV
Nature of the assay: DNA polymerization assay, POLγA:Y955C mutant. In kind it is biochemical. The conditions noted are these: stimulation of polymerase activity, primed M13mp18 ssDNA, 37° C. 2 hours. How it is done: DNA Polymerization Assay to Monitor Effects on Human Wildtype POLγ and Four Disease-Causing Mutant Variants of Human POLγ.
The ability of small molecules to stimulate the polymerase activity of POLγ was analyzed in a quantitative fluorescence SYBR Green I assay with fluorescence intensity (FI) readout.
In the presence of dNTPs, wild type human POLγ and mutant derivatives thereof were incubated with single-stranded, circular M13mp18 ssDNA hybridized to a short DNA oligonucleotide that functions as a primer for initiation of DNA synthesis. POLγ and mutant derivatives thereof will extend the primer and use the M13mp18 molecule as a template to synthesize long stretches of double-stranded DNA. SYBR Green I, which is a double-stranded DNA-binding dye, was used to quantify formation of double-stranded DNA in the reaction. When bound to double-stranded DNA, SYBR Green I fluorescence increases by up to 100-fold.
The assay was performed in the 384-well plate format. Upon addition of compounds, changes in double-stranded DNA synthesis activity can be monitored by following effects on fluorescent intensity.
The reactions also contained the accessory POLγB subunit, and the human mitochondrial single-stranded DNA binding protein (mtSSB).
The DNA template mixture used in the assay contained 0.5 nM primed M13 mp18 ssDNA, 400 nM mtSSB, 0.1 mM Tris-HCl (pH 8.0), 0.1 mM dNTP, 10 mM MgCl2, 0.1 mg/mL BSA, 1 mM TCEP solution, and 0.02% Triton X-100. The DNA template mixture for the wild type protein contained either 100 μM dNTP, 1 μM dNTP, or 0.1 μM dNTP, designated in Table 2 as 100 μM, 1 μM, and 0.1 μM, respectfully.
Microplates with compounds (0.1 μL in each well) to be tested in the assay were prepared from 10 mM compound stocks in 100% DMSO, and equal amounts of DMSO without any compound were added to positive and negative control wells.
The protein mixture was dispensed (5 μL into each well) into compound plates and incubated at 37° C. for 15 minutes. After incubation, 5 μL of the DNA template mixture was dispensed into each well. The plates were then incubated at 37° C. for 2 hours.
During incubation, a combined stop buffer and detection reagent solution was prepared. The buffer contained 25 mM EDTA (pH 8.0), 0.02% Triton X-100, and SYBR Green I [Invitrogen] diluted 10,000× (for fluorescent readout). EDTA will stop the enzymatic reaction by chelating magnesium ions.
Compound `Cc1cc(S(=O)(=O)Nc2cccc(-c3ncc(CO)s3)c2)c(C)cc1Cl` [Example 89, 4-chloro-N-(3-(5-(hydroxymethyl)thiazol-2-yl)phenyl)-2,5-dimethylbenzenesulfonamide] yielded an AC50 of 100 nM.
In turn, `Cc1cc(S(=O)(=O)Nc2cccc(-c3ncc(C4CC4)s3)c2)c(C)cc1Cl` [Example 76, 4-chloro-N-(3-(5-cyclopropylthiazol-2-yl)phenyl)-2,5-dimethylbenzenesulfonamide] yielded an AC50 of 2000 nM.
`Cc1cc(S(=O)(=O)Nc2csc(-c3ccccc3)n2)c(C)cc1Cl` [Example 81, 4-chloro-2,5-dimethyl-N-(2-phenylthiazol-4-yl)benzenesulfonamide] yielded an AC50 of 200 nM.
As to `Cc1cc(S(=O)(=O)Nc2ccc3ccn(C)c3c2)c(C)cc1Cl` [Example 72, 4-chloro-2,5-dimethyl-N-(1-methyl-1H-indol-6-yl)benzenesulfonamide], half-maximal activity (AC50) was put at 6000 nM.
`Cc1cc(S(=O)(=O)Nc2cccc(-c3ncc(CN(C)C)s3)c2)c(C)cc1Cl` [Example 87, 4-chloro-N-(3-(5-((dimethylamino)methyl)thiazol-2-yl)phenyl)-2,5-dimethylbenzenesulfonamide]: the AC50 was determined as 6000 nM.
In turn, `Cc1csc(-c2ccccc2NS(=O)(=O)c2cc(C)c(Cl)cc2C)n1` [Example 80, 4-chloro-2,5-dimethyl-N-(2-(4-methylthiazol-2-yl)phenyl)benzenesulfonamide] showed an AC50 of more than 100000 nM.
As for `Cc1nc2ccc(NS(=O)(=O)c3cc(C)c(Cl)cc3C)cc2s1` [Example 73, 4-chloro-2,5-dimethyl-N-(2-methylbenzo[d]thiazol-6-yl)benzenesulfonamide], the AC50 turned out to be 800 nM.
